Experimental data published in ChEMBL document CHEMBL1201862, “PubChem BioAssay data set” (2004).
Activity calls are given as the source filed them.

Key:
[1] = THP-1 cell cytotoxicity, dose response, cytotoxicity control for non-replicating M. tuberculosis project (AID 489025); assay type: functional
[2] = OVCAR8 cell viability loss – plate reader, dry powder samples, PAX8 project, dose response (AID 743197); assay type: functional, cell-based; settings: OVCAR-8
Paired box protein Pax-8 = Paired box protein Pax-8 (Homo sapiens, UniProt Q06710); assay: PAX8 transcriptional activity inhibition in RMG-I – RMG-I cells, luciferase, cherry-pick, dose response (AID 687027); assay type: functional, cell-based;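 further: luciferase reporter driven by Pax8 target thyroperoxidase promoter measured by SteadyGlo luminescence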
Sequence of Paired box protein Pax-8 (Q06710 whole entry): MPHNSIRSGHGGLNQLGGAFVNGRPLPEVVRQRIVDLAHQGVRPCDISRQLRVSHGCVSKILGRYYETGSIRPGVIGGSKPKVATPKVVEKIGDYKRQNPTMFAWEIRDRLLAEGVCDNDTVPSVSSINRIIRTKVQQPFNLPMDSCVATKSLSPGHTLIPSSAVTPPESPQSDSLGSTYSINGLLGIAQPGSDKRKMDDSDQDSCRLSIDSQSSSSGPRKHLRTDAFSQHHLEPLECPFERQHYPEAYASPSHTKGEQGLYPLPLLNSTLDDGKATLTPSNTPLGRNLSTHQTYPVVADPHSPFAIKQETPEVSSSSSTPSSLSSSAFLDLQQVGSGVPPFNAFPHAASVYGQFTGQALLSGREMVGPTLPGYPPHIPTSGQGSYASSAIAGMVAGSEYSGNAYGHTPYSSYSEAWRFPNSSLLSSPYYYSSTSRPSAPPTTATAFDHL

[3] = IGROV1 cell killing – plate reader, dry powder samples, PAX8 inhibitor project, dose response (AID 743043); assay type: functional, cell-based; settings: IGROV-1
[4] = OVCAR-3 cell viability loss – plate reader, dry powder samples, PAX8 inhibitor project, dose response (AID 743044); assay type: functional, cell-based
[5] = target: Peroxisome proliferator-activated receptor gamma/Nuclear receptor coactivator 3 (Homo sapiens, UniProt P37231); assay: (§1) TR-FRET dose response biochemical High Throughput Screening assay for agonists of the steroid receptor coactivator 3 (SRC-3) recruitment by the peroxisome proliferator-activated receptor gamma (PPAR gamma): non-selective agonists. [Related pubchem assays: 1301 (Confirmation screen.), 1048 (Primary screen.)]; assay type: functional
[6] = target: Peroxisome proliferator-activated receptor gamma/Nuclear receptor coactivator 1 (Homo sapiens, UniProt P37231); assay: as §1, with “1 (SRC-1)” for “3 (SRC-3)”, “assays (depositor defined):AID1300, AID1808, AID504735, AID631]” for “assays: 1301 (Confirmation screen.), 1048 (Primary screen.)]”; assay type: protein assay
Sequence of Peroxisome proliferator-activated receptor gamma/Nuclear receptor coactivator 1 (P37231 whole entry): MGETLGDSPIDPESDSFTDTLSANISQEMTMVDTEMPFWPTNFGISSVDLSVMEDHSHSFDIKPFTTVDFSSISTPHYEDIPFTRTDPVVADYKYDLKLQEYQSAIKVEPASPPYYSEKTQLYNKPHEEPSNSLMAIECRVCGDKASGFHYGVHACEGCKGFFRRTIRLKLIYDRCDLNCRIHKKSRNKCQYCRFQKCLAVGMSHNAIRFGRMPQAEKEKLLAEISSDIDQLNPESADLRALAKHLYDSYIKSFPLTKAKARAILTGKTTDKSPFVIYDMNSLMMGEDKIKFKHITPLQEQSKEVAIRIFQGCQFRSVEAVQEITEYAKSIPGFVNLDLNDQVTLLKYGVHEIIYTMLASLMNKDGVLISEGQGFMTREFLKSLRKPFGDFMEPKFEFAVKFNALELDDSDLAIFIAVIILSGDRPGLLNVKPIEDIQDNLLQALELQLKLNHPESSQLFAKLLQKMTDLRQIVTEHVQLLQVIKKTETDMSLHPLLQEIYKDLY
Sequence of Peroxisome proliferator-activated receptor gamma/Nuclear receptor coactivator 1 (Q15788 whole entry, further chain): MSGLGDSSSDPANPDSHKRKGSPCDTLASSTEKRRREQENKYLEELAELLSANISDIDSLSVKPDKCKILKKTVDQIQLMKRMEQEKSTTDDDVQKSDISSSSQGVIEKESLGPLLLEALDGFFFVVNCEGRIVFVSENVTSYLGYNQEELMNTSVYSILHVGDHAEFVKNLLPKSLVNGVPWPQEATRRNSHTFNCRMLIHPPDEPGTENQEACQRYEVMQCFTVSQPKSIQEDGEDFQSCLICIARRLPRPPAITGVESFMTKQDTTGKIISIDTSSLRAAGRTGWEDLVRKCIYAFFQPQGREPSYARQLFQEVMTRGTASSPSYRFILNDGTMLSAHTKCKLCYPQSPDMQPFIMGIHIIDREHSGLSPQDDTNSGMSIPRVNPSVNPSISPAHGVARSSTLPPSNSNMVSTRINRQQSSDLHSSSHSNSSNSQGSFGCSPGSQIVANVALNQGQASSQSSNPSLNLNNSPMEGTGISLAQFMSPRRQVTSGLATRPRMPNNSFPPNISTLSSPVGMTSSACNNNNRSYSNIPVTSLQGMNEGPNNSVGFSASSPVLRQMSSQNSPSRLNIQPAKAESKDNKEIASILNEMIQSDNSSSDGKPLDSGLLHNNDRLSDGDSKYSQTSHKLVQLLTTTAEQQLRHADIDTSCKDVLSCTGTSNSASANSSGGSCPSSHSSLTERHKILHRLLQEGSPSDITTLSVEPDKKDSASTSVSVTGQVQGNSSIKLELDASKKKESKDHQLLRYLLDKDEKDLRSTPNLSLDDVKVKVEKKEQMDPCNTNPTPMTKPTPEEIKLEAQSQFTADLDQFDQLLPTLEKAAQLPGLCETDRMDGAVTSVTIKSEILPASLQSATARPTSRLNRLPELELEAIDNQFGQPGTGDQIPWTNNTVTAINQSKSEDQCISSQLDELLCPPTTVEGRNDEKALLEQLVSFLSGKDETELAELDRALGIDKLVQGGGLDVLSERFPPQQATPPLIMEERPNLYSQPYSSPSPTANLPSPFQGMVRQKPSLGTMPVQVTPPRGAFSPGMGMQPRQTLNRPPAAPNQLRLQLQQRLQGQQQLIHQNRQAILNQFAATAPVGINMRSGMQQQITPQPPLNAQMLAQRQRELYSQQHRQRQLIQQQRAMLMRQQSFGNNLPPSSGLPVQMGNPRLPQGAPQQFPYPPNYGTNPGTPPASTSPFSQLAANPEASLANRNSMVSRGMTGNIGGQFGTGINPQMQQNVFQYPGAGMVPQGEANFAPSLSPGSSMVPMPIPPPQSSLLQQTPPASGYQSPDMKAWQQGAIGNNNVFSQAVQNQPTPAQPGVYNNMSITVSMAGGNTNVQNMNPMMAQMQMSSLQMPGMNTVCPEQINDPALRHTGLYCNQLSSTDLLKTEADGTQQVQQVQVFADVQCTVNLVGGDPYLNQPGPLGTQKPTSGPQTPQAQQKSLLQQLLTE

[7] = target: Peroxisome proliferator-activated receptor gamma/Nuclear receptor coactivator 2 (Homo sapiens, UniProt P37231); assay: TR-FRET dose response biochemical High Throughput Screening assay for agonists of the steroid receptor coactivator 2 (SRC-2) recruitment by the peroxisome proliferator-activated receptor gamma (PPAR gamma): non-selective agonists. [Related pubchem assays: 1297, 1032 ]; assay type: functional
fMet-Leu-Phe receptor = target: T1, fMet-Leu-Phe receptor (Homo sapiens, UniProt P21462); assay: formyl peptide receptor binders – dose response (AID 519); assay type: functional
T1 sequence (P21462 whole entry): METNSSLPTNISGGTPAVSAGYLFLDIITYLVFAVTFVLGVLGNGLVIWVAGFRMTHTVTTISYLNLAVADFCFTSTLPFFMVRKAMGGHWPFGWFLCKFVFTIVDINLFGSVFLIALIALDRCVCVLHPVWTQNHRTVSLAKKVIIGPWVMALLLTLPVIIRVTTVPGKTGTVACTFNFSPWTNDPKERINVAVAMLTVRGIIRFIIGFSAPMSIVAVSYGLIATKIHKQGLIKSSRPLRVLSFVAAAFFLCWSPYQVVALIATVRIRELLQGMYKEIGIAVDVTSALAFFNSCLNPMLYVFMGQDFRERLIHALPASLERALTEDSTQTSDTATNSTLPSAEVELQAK

[8] = HEK-293T cell viability reduction – luminescence, B-cell screen hits, cytotoxicity control for BCR NF-kB inhibitor project, dose response (AID 489021); assay type: functional, cell-based;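 further: HEK-293T cells carrying an NF-kB luciferase reporter; cells exposed to compound for about 14 hours before viability readout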
[9] = Luminescence Cell-Based Dose Response HTS to Identify Inhibitors of 5'UTR Stem-Loop Driven Prion Protein mRNA Translation in H4 Neuroglioblastoma Cells. [Related pubchem assays: 1827 (Project Summary), 1813 (Primary HTS)]; assay type: functional
[10] = luciferase reporter signal suppression in cells – H4 neuroglioma cells, luminescence, dose response (AID 1990); assay type: functional, cell-based
[11] = alpha-synuclein stem-loop luciferase translation blockers – H4 neuroglioma cells, luminescence, confirmation (AID 1988); assay type: functional, cell-based
[12] = intracellular Trypanosoma cruzi inhibitors in host cells – cell-based, plate reader, cherry-pick samples, set 3, dose response (AID 651818); assay type: functional;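 further: compounds incubated with infected cells for about four days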
H9c2 = assay: cells; assay type: functional, cell-based; settings: Rattus norvegicus, H9c2, Myocardium;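 further: confirmatory concentration-response retest of ultra-high-throughput screening hits for modulation of myocardial damage; cell death induced by hydrogen peroxide oxidative stress; compound pretreatment for 60 min then peroxide exposure for 2 h; potency is for protecting the cells against peroxide damage rather than for killing them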
Fatty acid synthase [13] = target: T2, Fatty acid synthase (Homo sapiens, UniProt P49327); assay: inhibition of human FAS-TE enzyme activity – biochemical, endpoint fluorescence intensity, uHTS hits, dose response (AID 624327); assay type: functional;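 further: fluorescence from hydrolysis of an O-methyl fluorescein acyl ester substrate by the enzyme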
T2 sequence (P49327 whole entry): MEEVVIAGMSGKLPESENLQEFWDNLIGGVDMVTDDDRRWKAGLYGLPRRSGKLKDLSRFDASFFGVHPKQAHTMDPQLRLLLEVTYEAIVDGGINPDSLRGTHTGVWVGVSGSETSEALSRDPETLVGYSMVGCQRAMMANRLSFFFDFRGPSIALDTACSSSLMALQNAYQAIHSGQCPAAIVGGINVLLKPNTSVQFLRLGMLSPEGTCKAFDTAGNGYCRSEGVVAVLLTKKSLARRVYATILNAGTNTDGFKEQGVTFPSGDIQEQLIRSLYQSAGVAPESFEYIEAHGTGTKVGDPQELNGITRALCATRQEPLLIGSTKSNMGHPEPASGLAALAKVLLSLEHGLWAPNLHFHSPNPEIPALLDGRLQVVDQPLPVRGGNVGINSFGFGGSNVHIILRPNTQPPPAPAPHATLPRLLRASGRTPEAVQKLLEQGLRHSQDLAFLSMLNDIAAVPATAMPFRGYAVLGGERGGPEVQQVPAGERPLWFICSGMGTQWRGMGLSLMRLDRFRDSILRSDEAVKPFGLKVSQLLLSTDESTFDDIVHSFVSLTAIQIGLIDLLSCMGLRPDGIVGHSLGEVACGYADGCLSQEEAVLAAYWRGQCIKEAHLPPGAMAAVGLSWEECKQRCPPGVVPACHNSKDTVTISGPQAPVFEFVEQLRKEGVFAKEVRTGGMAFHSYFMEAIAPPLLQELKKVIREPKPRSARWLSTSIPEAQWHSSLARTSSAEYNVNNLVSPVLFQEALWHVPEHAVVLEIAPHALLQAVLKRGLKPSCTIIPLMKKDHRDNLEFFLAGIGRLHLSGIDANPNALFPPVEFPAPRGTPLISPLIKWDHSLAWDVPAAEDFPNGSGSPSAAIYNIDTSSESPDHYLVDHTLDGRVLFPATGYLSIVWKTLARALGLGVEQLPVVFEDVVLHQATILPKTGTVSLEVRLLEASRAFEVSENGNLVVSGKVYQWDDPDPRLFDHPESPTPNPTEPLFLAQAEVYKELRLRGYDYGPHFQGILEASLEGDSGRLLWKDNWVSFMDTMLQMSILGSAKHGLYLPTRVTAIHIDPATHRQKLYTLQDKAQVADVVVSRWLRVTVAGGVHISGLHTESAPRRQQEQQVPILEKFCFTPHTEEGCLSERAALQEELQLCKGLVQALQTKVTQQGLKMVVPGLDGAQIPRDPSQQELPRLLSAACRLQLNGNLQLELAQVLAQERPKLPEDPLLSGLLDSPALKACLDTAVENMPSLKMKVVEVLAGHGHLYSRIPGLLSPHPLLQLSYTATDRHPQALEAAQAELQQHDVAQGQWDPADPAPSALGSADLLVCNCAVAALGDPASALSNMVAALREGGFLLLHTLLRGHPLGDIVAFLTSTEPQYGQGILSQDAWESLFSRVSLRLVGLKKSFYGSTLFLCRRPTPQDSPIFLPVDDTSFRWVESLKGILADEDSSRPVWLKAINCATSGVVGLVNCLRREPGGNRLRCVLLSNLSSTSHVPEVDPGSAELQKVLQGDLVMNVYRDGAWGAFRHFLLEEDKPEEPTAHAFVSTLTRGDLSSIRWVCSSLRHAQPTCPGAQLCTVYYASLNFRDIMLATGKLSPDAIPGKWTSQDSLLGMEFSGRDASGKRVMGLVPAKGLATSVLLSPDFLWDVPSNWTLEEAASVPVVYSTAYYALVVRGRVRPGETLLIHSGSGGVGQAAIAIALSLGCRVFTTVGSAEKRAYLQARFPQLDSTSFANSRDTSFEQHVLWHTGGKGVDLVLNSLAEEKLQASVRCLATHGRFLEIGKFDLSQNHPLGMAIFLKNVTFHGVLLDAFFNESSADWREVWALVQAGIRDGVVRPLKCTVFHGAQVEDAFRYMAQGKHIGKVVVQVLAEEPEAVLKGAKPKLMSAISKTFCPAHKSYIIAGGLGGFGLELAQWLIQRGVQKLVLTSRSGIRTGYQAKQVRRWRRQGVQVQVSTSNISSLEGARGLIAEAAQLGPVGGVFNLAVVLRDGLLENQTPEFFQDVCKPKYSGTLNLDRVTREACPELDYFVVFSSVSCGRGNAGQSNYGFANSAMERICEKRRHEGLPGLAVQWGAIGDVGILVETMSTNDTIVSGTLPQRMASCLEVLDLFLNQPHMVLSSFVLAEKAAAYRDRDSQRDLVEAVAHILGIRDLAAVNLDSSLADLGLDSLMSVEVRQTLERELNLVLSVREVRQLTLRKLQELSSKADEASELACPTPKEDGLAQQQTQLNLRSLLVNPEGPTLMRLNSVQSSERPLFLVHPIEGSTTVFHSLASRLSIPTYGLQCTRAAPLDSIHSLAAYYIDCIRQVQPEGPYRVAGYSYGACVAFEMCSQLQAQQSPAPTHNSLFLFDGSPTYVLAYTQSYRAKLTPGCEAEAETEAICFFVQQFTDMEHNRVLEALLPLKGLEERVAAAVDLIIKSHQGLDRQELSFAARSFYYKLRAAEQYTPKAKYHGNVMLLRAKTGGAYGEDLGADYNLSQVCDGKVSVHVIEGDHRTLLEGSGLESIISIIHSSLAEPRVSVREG

Fatty acid synthase [14] = target: T2, Fatty acid synthase; assay: inhibition of human FAS-TE enzyme activity – biochemical, kinetic fluorescence intensity, dose response (AID 624326); assay type: functional;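 further: rate of fluorescence rise from hydrolysis of a fluorogenic O-methyl fluorescein ester substrate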
[15] = target: T3, Endoribonuclease toxin MazF (Escherichia coli K-12, UniProt P0AE70); assay: substrate-only fluorescence increase artefacts – biochemical, single-stranded RNase substrate, counter-screen for MazEF activator project, dose response (AID 588502); assay type: functional
T3 sequence (P0AE70 whole entry): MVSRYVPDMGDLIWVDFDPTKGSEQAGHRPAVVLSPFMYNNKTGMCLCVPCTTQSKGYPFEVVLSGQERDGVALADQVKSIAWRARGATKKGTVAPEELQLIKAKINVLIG

[16] = target: T3, Endoribonuclease toxin MazF; assay: activation of MazEF endoribonuclease cleavage – biochemical, fluorescence, single-stranded RNA substrate, uHTS hits, dose response (AID 588481); assay type: functional

Which CC50 [1] does the source give for `CC(C)(C)NCc1cc(Br)ccc1OCc1cccs1` here?
The CC50 was > 40 µM (active).

For `C[C@@H]1CCCCO[C@@H](CN(C)Cc2ccc(C(F)(F)F)cc2)[C@H](C)CN([C@@H](C)CO)C(=O)c2cc(NC(=O)Cc3ccccc3)ccc2O1`, which AC50 [2] is on record?
The AC50 was 33.3 µM (active).

What about the AC50 (Paired box protein Pax-8) of the same molecule?
Its AC50 is 7.16 µM (active).

What about the AC50 [3] of the same molecule?
Its AC50 is 25.7 µM (active).

And the AC50 [4]?
Its AC50 is 19.8 µM (active).

Which results are given for `CC(C)CC(=O)NC(=S)Nc1cccc2nsnc12`?
EC50 [5]: 7.93 µM (active); EC50 [6]: 1.81 µM (active); EC50 [7]: 2.92 µM (active)

With `CCOC(=O)c1cc(NC(=O)C2C3CCC(O3)C2C(=O)O)cc(C(=O)OCC)c1` (stereo unspecified) as the molecule, how does the Ki (fMet-Leu-Phe receptor) read?
Its Ki is > 66.7 µM (inactive).

With `C[C@@H]1CN([C@H](C)CO)C(=O)c2cc(NS(=O)(=O)c3ccc(Cl)cc3)ccc2O[C@@H](C)CCCCO[C@H]1CN(C)Cc1ccc2c(c1)OCO2` as the molecule, how does the AC50 [2] read?
The AC50 was 51.2 µM (active).

And the AC50 (Paired box protein Pax-8)?
Its AC50 is 10.2 µM (active).

What about the AC50 [3] of the same molecule?
The AC50 was 49.9 µM (active).

And the AC50 [4]?
The AC50 was 17.5 µM (active).

Which results are given for `COc1cc(OC)cc(-c2cc3nc(C)c(CCC(=O)NCc4ccccc4)c(C)n3n2)c1`?
IC50 [8]: > 80 µM (inactive); EC50 [9]: 9.35 µM (active); EC50 [10]: 8.43 µM (active); EC50 [11]: 9.84 µM (active)

With `C[C@@H]1CCCCO[C@@H](CN(C)Cc2ccncc2)[C@H](C)CN([C@@H](C)CO)C(=O)c2cc(NC(=O)Nc3ccc(C(F)(F)F)cc3)ccc2O1` as the molecule, how does the AC50 [2] read?
The AC50 was > 70 µM (inactive).

And the AC50 (Paired box protein Pax-8)?
Its AC50 is 5.52 µM (active).

What about the AC50 [4] of the same molecule?
The AC50 was 35.8 µM (active).

For `C[C@H]1CN([C@@H](C)CO)C(=O)Cc2cc(NC(=O)Nc3ccc4c(c3)OCO4)ccc2O[C@@H]1CN(C)Cc1ccc(C(F)(F)F)cc1`, which AC50 [12] is on record?
Its AC50 is 4.86 µM (active).

For `Nc1nc(-c2c[nH]c3ccccc23)cs1`, which EC50 [5] is on record?
Its EC50 is > 79.4 µM (not active).

What about the IC50 (H9c2) of the same molecule?
Its IC50 is > 79 µM (inactive).

What about the EC50 [6] of the same molecule?
The EC50 was > 26.5 µM (inactive).

And the EC50 [7]?
Its EC50 is 24.2 µM (not active).

With `N=c1oc2ccc(Cl)cc2cc1C(=O)NC1CCCCCC1` as the molecule, how does the CC50 [1] read?
The CC50 was 24 µM (active).

With `Cc1nc2ccc([N+](=O)[O-])cc2c(=O)n1Cc1ccc([N+](=O)[O-])cc1` as the molecule, how does the IC50 (Fatty acid synthase [13]) read?
Its IC50 is 9.22 µM (active).

What about the IC50 (Fatty acid synthase [14]) of the same molecule?
Its IC50 is 8.3 µM (active).

What does the source list for `O=C(NN1C(=O)/C(=C/c2nc3ccccc3[nH]2)SC1=S)c1ccccc1Cl`?
EC50 [5]: > 79.4 µM (not active); EC50 [6]: 25.8 µM (inactive); EC50 [7]: 44.5 µM (not active)

With `COC(=O)c1sc2nc(SCc3cccc(F)c3)n(N)c(=O)c2c1C` as the molecule, how does the EC50 [15] read?
Its EC50 is > 99 µM (inactive).

What about the EC50 [16] of the same molecule?
The EC50 was > 99 µM (inactive).

Which results are given for `CC(C)C[C@@]12C(=O)N(c3ccc(Br)cc3)C(=O)N1[C@H](c1ccc(Br)cc1)[C@@H]1C(=O)N(C(C)(C)C)C(=O)[C@@H]12`?
IC50 (Fatty acid synthase [13]): 15.9 µM (active); IC50 (Fatty acid synthase [14]): 14.6 µM (active)

With `Cc1c(CCC(=O)O)c(=O)oc2cc3oc4c(c3cc12)CCCC4` as the molecule, how does the IC50 [8] read?
The IC50 was > 80 µM (inactive).
